In PMC10873978, “Novel tetrahydroisoquinolines as DHFR and CDK2 inhibitors: synthesis, characterization, anticancer activity and antioxidant properties” (BMC Chemistry, 2024):

Tests used:
[1] = target: T1, Dihydrofolate Reductase (DHFR) (Homo sapiens, UniProt P00374); assay: DHFR inhibitors assay kit (absorbance 340 nm); type: biochemical; details: for %inh: DHFR
T1 construct: purchased abcam ab283374
T1 sequence (P00374 1-187): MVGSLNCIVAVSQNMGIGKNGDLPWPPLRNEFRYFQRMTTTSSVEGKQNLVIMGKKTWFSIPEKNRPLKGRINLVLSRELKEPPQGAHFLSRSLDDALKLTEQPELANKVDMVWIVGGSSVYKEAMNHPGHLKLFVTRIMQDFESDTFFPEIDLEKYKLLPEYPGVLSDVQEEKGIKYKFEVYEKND
Description: The DHFR inhibitors assay kit was performed according to abcam (code ab283374); (www.abcam.co.jp).
Firstly, Dilute 2 μL Dihydrofolate Reductase with798 μL DHFR Assay Buffer. Then add 98 μL of diluted Dihydrofolate Reductase into desired well(s) containing the out synthesized 8d compound. Add 40 μL of diluted NADPH to each well containing the test samples. Incubate at room temperature for 10–15 min. Add 60 μL of diluted DHFR substrate to each well containing the test samples vortex briefly and keep on ice. Measure the absorbance immediately at 340 nm. Then calculate the inhibition concentration of 8d compound. The data was analyzed and plot by Graphpad prism software.

A549 cell line = assay: In vitro cytotoxic activity, MTT method, A549
How it was run: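 MTT assay: cells seeded at 10^5 cells/mL, grown 24 h at 37 °C to a monolayer, then exposed to serial tetrahydroisoquinoline concentrations at 37 °C. MTT (5 mg/mL stock) added for 1–5 h; OD read at 560 nm minus 620 nm background. Doxorubicin as positive control.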

MCF7 cells = assay: Cell cycle analysis (propidium iodide flow cytometry), MCF7; type: cell-based, human
Description: Then centrifuged the cells and washed twice with ice-cold PBS, and incubated for 20 min at 4 °C. A cell cycle assay was used to assess the cell cycle (Propidium Iodide Flow Cytometry Kit [ab13941]. Then perform statistical analysis for the result by the Cell quest software on the cell fractions in sub-G0/G1, S, and G2/M phases.

Eef2 kinase = Eef2 kinase (Homo sapiens, UniProt O00418); assay: Eef2 kinase inhibition; type: biochemical
IKB kinase B = target: T2, IKB kinase B (Homo sapiens, UniProt O14920); assay: IKB kinase inhibition; type: biochemical; details: for %inh: IκB
T2 sequence (O14920 1-756): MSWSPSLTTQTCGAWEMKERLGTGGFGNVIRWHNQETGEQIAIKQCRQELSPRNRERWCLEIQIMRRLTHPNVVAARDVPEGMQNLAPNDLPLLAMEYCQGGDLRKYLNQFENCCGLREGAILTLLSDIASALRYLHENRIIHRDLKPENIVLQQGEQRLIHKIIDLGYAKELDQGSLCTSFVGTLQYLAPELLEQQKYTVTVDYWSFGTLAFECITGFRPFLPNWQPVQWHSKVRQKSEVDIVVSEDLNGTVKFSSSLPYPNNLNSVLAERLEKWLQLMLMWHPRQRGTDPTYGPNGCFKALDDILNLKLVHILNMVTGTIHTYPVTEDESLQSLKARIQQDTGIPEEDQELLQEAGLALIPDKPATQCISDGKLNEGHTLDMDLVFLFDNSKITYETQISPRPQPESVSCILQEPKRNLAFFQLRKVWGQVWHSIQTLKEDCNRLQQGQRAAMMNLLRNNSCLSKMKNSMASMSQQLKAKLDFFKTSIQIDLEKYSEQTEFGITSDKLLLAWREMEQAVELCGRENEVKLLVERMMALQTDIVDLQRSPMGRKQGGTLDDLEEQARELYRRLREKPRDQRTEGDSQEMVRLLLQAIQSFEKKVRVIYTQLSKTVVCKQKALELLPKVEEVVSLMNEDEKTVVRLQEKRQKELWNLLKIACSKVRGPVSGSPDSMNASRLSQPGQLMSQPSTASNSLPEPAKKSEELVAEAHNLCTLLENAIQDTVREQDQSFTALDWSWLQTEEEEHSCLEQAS

MCF7 cell line = assay: Annexin-V FITC/PI apoptosis assay, MCF7; type: cell-based, human; details: MCF7, compound at IC50, 24 h
Description: (www.biovision.com). […] These stained cells were measured using flow cytometry with an excitation wavelength of 488 nm and an emission wavelength of 530 nm. The results were then analyzed with the Cell quest software.
To further investigate whether the anti-proliferative activity for compound 7e or 8d is harmonious with the apoptosis induction within A549 or MCF7 cells pointed out by the increased cell population in G2/M phase in 7e-treated A549 cells and S phase in 8d-treated MCF7 cells, respectively, and AnnexinV-FITC/PI dual staining analysis was used for the apoptosis assay (Fig. 3).

[2] = MCF7 cells, compound at IC50, 48 h

`CC(=O)c1ccc(NC(=O)c2sc3nc(C)c4c(c3c2N)CC(C)(O)C(C(C)=O)C4c2ccc(N(C)C)cc2)cc1` (centres unmarked) [Compound 8d, 7-Acetyl-N-(4-acetylphenyl)-1-amino-5,8-dimethyl-8-hydroxy-6-(4-N,N-dimethylaminophenyl)-6,7,8,9-tetrahydrothieno[2,3-c]isoquinoline-2-carboxamide] was tested, and the “%inh” value ([1]; conc 0.01 (log -2)) was 27.5%, the “%inh” value ([1]; conc 0.1 (log -1)) was 38.9% and the “%inh” value ([1]; conc 1 (log 0)) was 67.1%. For the same compound, the “%inh” value ([1]; conc 10 (log 1)) was 85.7%, the “%inh” value ([1]; conc 100 (log 2)) was 93% and the IC50 ([1]; read-out: DHFR inhibition (IC50 ± SD)) was 199 ± 16 nM. For the same compound, the Toxicity % (A549 cell line; A549, Conc. 0.04875 µMol) was 13.49%, the Toxicity % (A549 cell line; A549, Conc. 0.0975 µMol) was 15.39% and the Toxicity % (A549 cell line; A549, Conc. 0.195 µMol) was 19.17%. The Viability % (A549 cell line; A549, Conc. 0.195 µMol) was 80.83%, the Toxicity % (A549 cell line; A549, Conc. 0.391 µMol) was 43.87% and the Viability % (A549 cell line; A549, Conc. 0.391 µMol) was 56.13%. It also gave a Toxicity % (A549 cell line; A549, Conc. 0.781 µMol) of 53.45%, a Viability % (A549 cell line; A549, Conc. 0.781 µMol) of 46.55% and a Toxicity % (A549 cell line; A549, Conc. 1.562 µMol) of 68.4%. The Viability % (A549 cell line; A549, Conc. 1.562 µMol) was 31.6%, the Toxicity % (A549 cell line; A549, Conc. 3.125 µMol) was 82.68% and the Viability % (A549 cell line; A549, Conc. 3.125 µMol) was 17.32%. It also gave a Toxicity % (A549 cell line; A549, Conc. 6.25 µMol) of 88.4%, a Viability % (A549 cell line; A549, Conc. 6.25 µMol) of 11.6% and a Toxicity % (A549 cell line; A549, Conc. 12.5 µMol) of 96.41%. The Viability % (A549 cell line; A549, Conc. 12.5 µMol) was 3.59%, the Toxicity % (A549 cell line; A549, Conc. 25 µMol) was 96.65% and the Viability % (A549 cell line; A549, Conc. 25 µMol) was 3.353%. The IC50 (A549 cell line; Homo sapiens, read-out: IC50 ± SD) was 515 ± 2 nM, the “phase of cell cycle arrest” value (MCF7 cells; MCF7 cell line) was “S phase” and the “DNA content %G0-G1” value (MCF7 cells; [2]) was 52.03%. The “DNA content %G2/M” value (MCF7 cells; [2]) was 10.05%, the “DNA content %S” value (MCF7 cells; [2]) was 37.92% and the “%inh” value (Eef2 kinase; Eef2, conc 0.01 (log -2)) was 16.5%. The “%inh” value (Eef2 kinase; Eef2, conc 0.1 (log -1)) was 32.8%, the “%inh” value (Eef2 kinase; Eef2, conc 1 (log 0)) was 48.2% and the “%inh” value (Eef2 kinase; Eef2, conc 10 (log 1)) was 76.5%. The “%inh” value (Eef2 kinase; Eef2, conc 100 (log 2)) was 91.7%, the IC50 (Eef2 kinase; read-out: Eef2 kinase (IC50 ± SD)) was 689 ± 36 nM and the “%inh” value (IKB kinase B; conc 0.01 (log -2)) was 21.8%. The “%inh” value (IKB kinase B; conc 0.1 (log -1)) was 42.3%, the “%inh” value (IKB kinase B; conc 1 (log 0)) was 63.9% and the “%inh” value (IKB kinase B; conc 10 (log 1)) was 86.4%. For the same compound, the “%inh” value (IKB kinase B; conc 100 (log 2)) was 93.7%, the IC50 (IKB kinase B; read-out: IKB kinase B (IC50 ± SD)) was 240 ± 13 nM and the early apoptotic population (MCF7 cell line) was 22.38%. For the same compound, the late apoptotic population (MCF7 cell line) was 26.96% and the “population of necrotic cells” value (MCF7 cell line) was 5.04%.
